From publication PMC8548483, “Bioactive compounds from an endophytic fungi Nigrospora aurantiaca” (Botanical Studies, 2021) come the findings set out here.

“Also recorded” adds a separate entry of the source.

Common to all, as to type: cell-based, murine
Data set [1] relates to microglial BV-2 cells. The experiment in a line: Cell viability (MTT test) in BV-2 cells. The following applies: 10 µM. On the procedure: (§1) The murine BV-2 microglial cell line cultured followed the procedure of our previous reports (Hsiao et al. [2020]). In summary, BV-2 cells were cultured with DMEM containing Fetal Bovine Serum (FBS), streptomycin/penicillin, Lglutamine and HEPES at 37 °C, humidified 5% CO2. Prior to the study, BV-2 cells were cultured in FBS media (5%), pretreated with carrier media or various concentrations of compounds for 15 min, and eventually collected after 24 h of stimulation with LPS (150 ng/mL).
(§2) As in our previous report, cellular viability was assessed using MTT test where BV-2 cells, along with other compounds were treated for 24 h (Hsiao et al. [2020]).

Data set [2] can be described thus: Cell viability (MTT test) in BV-2 cells. The following applies: mouse, BV-2 microglial cells, 24 h, MTT, mean ± SD (n = 3), read-out: Cell viabillity (%). On the procedure:
as §1, §2

For data set [3], the system named is NO production in LPS-activated microglial BV-2 cells. The experiment in a line: Inhibition of NO production in LPS-activated microglial BV-2 cells (Griess method). The following applies: for Inhibitory effect on NO production (in words): LPS-activated BV-2 cells; for IC50: Mus musculus, LPS (150 ng/mL)-stimulated BV-2 cells, 15 min pretreatment, 24 h, mean ± SD (n = 3), read-out: IC50 (inhibitory effect on NO production). On the procedure: as §1
The level of nitric oxide (NO) metabolites from the production of activated BV-2 cells was measured with reference to the Griess method (Wang et al. [2018]).

As for `CC(C)[C@@H](C)/C=C/[C@@H](C)[C@H]1CC[C@H]2C3=CC=C4C[C@@H](O)CC[C@]4(C)[C@H]3CC[C@]12C` [Compound 6, ergosterol], the “Cytotoxicity against microglial BV-2 cells (in words)” value (shortened to “Cytotoxicity”) in data set [1] is listed as “no significant cytotoxic effect”. In data set [2], the viability at 24 h, 10 µM came out at 90.8 ± 6.7%. Moreover, in data set [3], the “Inhibitory effect on NO production (in words)” value is listed as “potently inhibitory effects; also recorded: potential inhibitory activities; also recorded: considerable inhibitory effect” and the IC50 was determined as 7.2 ± 1.4 µM.

On to `COC1=CC(=O)c2c(O)c3c(c(O)c2C1=O)C[C@](C)(O)[C@H](O)[C@H]3O` [Compound 3, bostrycin], for which the “Cytotoxicity” value in data set [1] is given as “significant cytotoxicity”. In addition, the viability at 24 h, 10 µM in data set [2] came out at 10.7 ± 0.8%. Further, in data set [3], the “Inhibitory effect on NO production (in words)” value is recorded as “potently inhibitory effects; also recorded: potential inhibitory activities” and the IC50 was found to be 2.3 ± 0.3 µM.

Consider `COc1cc(O)c2c(c1O)[C@@H](O)[C@@H]1C[C@](C)(O)[C@H](O)C[C@@H]1C2=O` [Compound 5, xylanthraquinone], for which the “Cytotoxicity” value in data set [1] is “no cytotoxic activity”. The viability at 24 h, 10 µM in data set [2] was found to be 103 ± 6.9%. Moreover, in data set [3], the “Inhibitory effect on NO production (in words)” value is recorded as “weak inhibitory effects; also recorded: weak inhibitory activities” and the IC50 was 32.1 ± 6.7 µM.

With `C/C=C/C=C(\CO)C(/C=C/C)CO` (stereo not shown) [Compound 1, nigaurdiol], in data set [1], the “Cytotoxicity” value is recorded as “no cytotoxic activity”. Besides, the viability at 24 h, 10 µM in data set [2] stood at 103 ± 8.8%. In addition, in data set [3], the “Inhibitory effect on NO production (in words)” value is recorded as “weak inhibitory effects; also recorded: weak inhibitory activities” and the IC50 amounted to 32.2 ± 3.3 µM.

Turning to `Cc1cc(O)c2c(c1)O[C@@]1(C)OC[C@H](C)C1C2` (stereo partly shown) [Compound 2, xyloketal K], the “Cytotoxicity” value in data set [1] is listed as “no cytotoxic activity”. Also, the viability at 24 h, 10 µM in data set [2] amounted to 98.3 ± 7.6%. Moreover, in data set [3], the “Inhibitory effect on NO production (in words)” value is “weak inhibitory effects; also recorded: weak inhibitory activities” and the IC50 turned out to be 30.1 ± 3 µM.

For the compound `COC1=CC(=O)c2c(O)c3c(c(O)c2C1=O)C[C@](C)(O)[C@H](O)C3` [Compound 4, deoxybostrycin], the “Cytotoxicity” value in data set [1] is on record as “significant cytotoxicity”. The viability at 24 h, 10 µM in data set [2] came to 11.3 ± 1.3%. Besides, in data set [3], the “Inhibitory effect on NO production (in words)” value is “potently inhibitory effects; also recorded: potential inhibitory activities” and the IC50 is 2.5 ± 0.5 µM.

Regarding `COc1cc(/C=C/C(=O)CC(=O)/C=C/c2ccc(O)c(OC)c2)ccc1O` [Curcumin, curcumin, reference compound], in data set [3], the IC50 was 6 ± 0.3 µM.
